This data set can be described thus: Human HepG2 cell viability assay in 384 well format. The format is toxicity, cell-based. Also noted: dose 125 nL, time 70.5 hour; concentration not given beside the values. The conditions noted are these: HepG2 cells, read-out: Inhibition.
For the molecule `CNc1cccc(C2CCCN(C(=O)c3cnccn3)C2)n1` (stereo unspecified), the cytotoxicity at 70.5 h was -0.4%. On to `O=C(c1cnccn1)N1CCC(Cc2cnc3[nH]ccc3c2)CC1`, for which the cytotoxicity at 70.5 h was -2.92%. With `Cc1ccccc1-c1cncc(C2CCN(C3CCOCC3)CC2)n1`, the cytotoxicity at 70.5 h came to 1%. With `COc1ccc(CN(C)[C@@H]2CN(C(=O)c3cnn(C)c3)C[C@H]2O)cc1`, the cytotoxicity at 70.5 h is -6.51%. For the molecule `Cc1ccccc1-c1cncc(C2CCN(S(=O)(=O)N(C)C)CC2)n1`, the cytotoxicity at 70.5 h is -2.74%. The same measure for `COc1ccc(CN(C)[C@@H]2CN(C(=O)c3cccnc3)C[C@H]2O)cc1`: 2.56%; for `CCCN(C(=O)c1cnc(C)cn1)c1nc2c(s1)CCc1c-2cnn1C`: 14.9%. As to `O=C(c1cccs1)N1CCc2c(nc(N3CCCC3)[nH]c2=O)C1`, the cytotoxicity at 70.5 h is -0.974%. Turning to `CC(C)C(=O)N1CCC(n2nc(-c3ccco3)ccc2=O)CC1`, the cytotoxicity at 70.5 h turned out to be 15.9%. `CS(=O)(=O)c1snnc1C1CCCN(Cc2ccncc2)C1` (stereo unspecified): the cytotoxicity at 70.5 h was -11.9%. Regarding `Cc1nc(O)c2nnn(C[C@H]3CCCN3C(=O)c3ccc(F)cc3)c2n1`, the cytotoxicity at 70.5 h is -4.53%. In the case of `Cc1nc(O)c2nnn(C[C@H]3CCCN3C(=O)C3CCCC3)c2n1`, the cytotoxicity at 70.5 h was -4.22%. Take `COc1ccc(CN(C)[C@@H]2CN(C(=O)c3cccn3C)C[C@H]2O)cc1`: the cytotoxicity at 70.5 h amounted to 16.9%. As to `CC(=O)N1CCC(c2nn(C)c3nccnc23)C1` (stereo unspecified), the cytotoxicity at 70.5 h is -5.3%. As for `CN1CCCC(c2cccc(CCC(N)=O)n2)C1` (stereo unspecified), the cytotoxicity at 70.5 h is -3.92%.

Regarding `CNC(=O)C1(c2cnccn2)CCCN1C(=O)c1ccccn1` (stereo unspecified), the cytotoxicity at 70.5 h was 8.19%. Consider `CNC(=O)C1(c2cnccn2)CCCN1C(=O)c1cccc(C)n1` (stereo unspecified), for which the cytotoxicity at 70.5 h is -5.53%.

Turning to `CN1CCCC[C@@H]2[C@H]1[C@@H](c1ccccc1)CCN2C(=O)c1ccncc1`, the cytotoxicity at 70.5 h is -5.64%. In the case of `CC(=O)N1CCN(c2cc(CCNC(=O)C(C)C)nc(C3CC3)n2)CC1`, the cytotoxicity at 70.5 h is -7.84%.

With `CN1CC(c2cc(O)nc(NCc3cccc(F)c3)n2)CC1=O` (stereo unspecified), the cytotoxicity at 70.5 h was -10.4%. Turning to `CCc1cc(C(=O)N2CCCC2c2nc(C)c(CC)c(O)n2)on1` (stereo unspecified), the cytotoxicity at 70.5 h is -6.15%. With `CN(CC(=O)NCc1cc2ccccc2o1)S(C)(=O)=O`, the cytotoxicity at 70.5 h is -0.935%. As for `CCN(CCC#N)Cn1ncc2cn(-c3ccccc3)nc2c1=O`, the cytotoxicity at 70.5 h was -2.4%. In the case of `COc1ccc(Cl)cc1NCC(=O)N(Cc1ccccn1)C1CC1`, the cytotoxicity at 70.5 h was -4.9%. Take `COc1ccccc1OCCNC(=O)NCc1nc(C)no1`: the cytotoxicity at 70.5 h was -6.75%. On to `COCCn1c(C(=O)NC(C(N)=O)C(C)C)cc2ccccc21` (stereo unspecified), for which the cytotoxicity at 70.5 h is -6.02%.

Turning to `O=C(NC(C1CC1)C1CC1)c1cccc[n+]1[O-]`, the cytotoxicity at 70.5 h is -2.48%. On to `COc1c(C2CCCN2c2ncnc3ccsc23)c(C)nn1C` (stereo unspecified), for which the cytotoxicity at 70.5 h was -3.57%. With `CNS(=O)(=O)CC1CCCN1c1ccc(Br)cn1` (stereo unspecified), the cytotoxicity at 70.5 h is -0.632%. For `CCc1cnc(CN(C)C2CCN(c3sccc3C#N)C2=O)s1` (stereo unspecified), the cytotoxicity at 70.5 h stood at 13.4%. The same measure for `O=C(NC1(C(=O)NCC2CC2)CCCC1)C1Cc2cc(F)ccc2O1` (stereo unspecified): -4.27%; for `COCCn1c(C(=O)NCC(C)C(=O)O)cc2ccccc21` (stereo unspecified): 0.983%; for `COC(=O)C1CCCCN1C(=O)c1ccc(N(C)C)cc1F` (stereo unspecified): 2.71%. Regarding `Cc1nc(CN(C)C(=O)Nc2cccc(COC(C)C)c2)no1`, the cytotoxicity at 70.5 h is -1.56%. On to `CCCN(C(=O)CN1CCN(CC(C)O)CC1)C1=CCCCC1` (stereo unspecified), for which the cytotoxicity at 70.5 h stood at 35.9%.

Turning to `CCC(C)CS(=O)(=O)NCCc1csc(N2CCCC2)n1` (stereo unspecified), the cytotoxicity at 70.5 h is -1.21%. For the molecule `CCc1ncc(CN(C)C2CCN(c3sccc3C#N)C2=O)s1` (stereo unspecified), the cytotoxicity at 70.5 h is -2.11%. In the case of `CN(CC(=O)N(C)C)Cc1ccc(C#N)cc1F`, the cytotoxicity at 70.5 h came out at 11.5%. The same measure for `NCC1(CN2CCOCC2)CCCCC1`: 14.2%; for `CC(NC(=O)c1cccc[n+]1[O-])C1CC1` (stereo unspecified): -4.24%.

For `CCN(Cc1ccc(C#N)cc1F)C(=O)C(C)(C)C`, the cytotoxicity at 70.5 h is -0.767%. As for `CC(C)c1cc(C(=O)N2Cc3ccccc3CC2C(=O)O)nn1C` (stereo unspecified), the cytotoxicity at 70.5 h is -2.03%. For the molecule `CN(CC(=O)N(C)C(c1ccc(Cl)cc1)c1cccnc1)C1CC1` (stereo unspecified), the cytotoxicity at 70.5 h was -5.57%. Turning to `COCCNC(=O)c1ccc(NCc2csc(C)n2)cc1Cl`, the cytotoxicity at 70.5 h was -2.04%. The value for `CN(Cc1ccccc1F)C(=O)c1cc(Cl)c[nH]1` was -2.89%. Take `CN(Cc1ccsc1)C(=O)COC(=O)c1cc(Cl)c[nH]1`: the cytotoxicity at 70.5 h was -2.89%. Turning to `CC1COCCN1C(=O)COc1ccc(Oc2ccccn2)cc1` (stereo unspecified), the cytotoxicity at 70.5 h was determined as 1.4%. As for `O=C(Nc1cc(C(F)(F)F)c[nH]c1=O)C1CCCNC1` (stereo unspecified), the cytotoxicity at 70.5 h was -8%. Consider `O=C(Nc1cc(C(F)(F)F)c[nH]c1=O)C1CCNCC1`, for which the cytotoxicity at 70.5 h is -12.8%.

`O=C(Nc1cc(C(F)(F)F)c[nH]c1=O)C1CCCN1` (stereo unspecified): the cytotoxicity at 70.5 h is -10.7%. Consider `N#CCCCS(=O)(=O)NC1(c2cccc(Cl)c2)CC1`, for which the cytotoxicity at 70.5 h was -9.01%.

Take `Cc1cc(NCc2cn(C)nc2-c2cccnc2)n(C)n1`: the cytotoxicity at 70.5 h is -2.96%. With `COCC(=O)Nc1ccc(C)cc1-c1nc(C2CC2)no1`, the cytotoxicity at 70.5 h was -7.26%. For `CN(C)C1(CNC(=O)c2c(O)cc(Cl)cc2Cl)CCOCC1`, the cytotoxicity at 70.5 h is -9.63%. `Cc1ccc(NC(=O)N2CC[C@@H](O)C2)c(-c2nc(C3CC3)no2)c1`: the cytotoxicity at 70.5 h was -3.95%. Consider `CCCS(=O)(=O)CCN1CCN(C(C#N)c2ccccc2)CC1` (stereo unspecified), for which the cytotoxicity at 70.5 h is -8.86%.

Regarding `CNS(=O)(=O)CCCN1CCN(C(C#N)c2ccccc2)CC1` (stereo unspecified), the cytotoxicity at 70.5 h is -11.2%. The value for `CNC(=O)c1cccc(CN2CCN(C3=NCC(C)(C)S3)CC2)c1` was -5.92%. For the molecule `CC(C)c1cc(N2CCC(NS(C)(=O)=O)C2)nc(C(C)C)n1` (stereo unspecified), the cytotoxicity at 70.5 h is -10.9%.

Turning to `Cc1noc(NCc2cn(C)nc2-c2cccnc2)n1`, the cytotoxicity at 70.5 h is -12.1%. The same measure for `CC(NC(=O)N(C)C1CC1)c1ccc(Oc2cccnc2)c(F)c1` (stereo unspecified): -8.76%; for `CC(C)S(=O)(=O)CCN1CCN(C(C#N)c2ccccc2)CC1` (stereo unspecified): -7.44%. With `Cc1ccc(C(=O)N(CC(=O)O)CC(C)C)cc1F`, the cytotoxicity at 70.5 h was -7.92%. Regarding `CCN(Cc1ccncc1)C1CCN(c2ccccc2)C1=O` (stereo unspecified), the cytotoxicity at 70.5 h turned out to be 1.49%. The same measure for `Cc1ccc(-c2nnn(CCN3C(=O)CCC3=O)n2)cc1`: -3.33%; for `O=C1CCC(=O)N1CCn1nnc(-c2cccc(Cl)c2)n1`: 1.35%. For `COc1ccc(C)cc1CN(C)CC(N)=O`, the cytotoxicity at 70.5 h is -7.37%. The same measure for `Cc1noc(C)c1C(=O)N1CCC(n2cccn2)CC1`: -3.66%; for `CC(C)CCc1noc(C[S+]([O-])CC(=O)NCc2ccccc2)n1` (stereo unspecified): -1.48%. For the molecule `Cc1c(NC(=O)NCCO)cccc1OC1CCCC1`, the cytotoxicity at 70.5 h was -8.09%.

Consider `Cc1ccc(N(CCC#N)C(=O)CCc2cscn2)cc1C`, for which the cytotoxicity at 70.5 h is -3.27%. The value for `CCN(Cc1nccn1C)C1CCN(c2ccccc2)C1=O` (stereo unspecified) was -2.87%; that for `Cc1c(NC(=O)NC(C)CCO)cccc1OC1CCCC1` (stereo unspecified) was -2.19%; that for `CC(C)c1ccccc1OCCNC(=O)N1CCC2(CC1)OCCO2` was -2.15%. Regarding `COc1c(C2CCCN2C(=O)c2ccc(C(N)=O)s2)c(C)nn1C` (stereo unspecified), the cytotoxicity at 70.5 h was -7.38%.

Take `CC(C)Cc1nc(C[S+]([O-])CC(=O)NCc2ccccc2)no1` (stereo unspecified): the cytotoxicity at 70.5 h was -5.17%.

In the case of `COc1nc(C)ccc1CNC(=O)NC(c1ncc(C)s1)C1CC1` (stereo unspecified), the cytotoxicity at 70.5 h was -2.73%. For the molecule `NC(=O)COc1cccc(Cn2cccn2)c1`, the cytotoxicity at 70.5 h was -3.94%. Regarding `CN1CCC(Nc2ccc(F)cc2OCC(F)(F)F)C1=O` (stereo unspecified), the cytotoxicity at 70.5 h was -0.0891%. Take `CC(C(N)=O)N1CCN(c2ncc(Cl)cn2)CC1` (stereo unspecified): the cytotoxicity at 70.5 h was -5.36%.

Take `CC(C(=O)N1CCCC1)N1CCN(c2ncc(Cl)cn2)CC1` (stereo unspecified): the cytotoxicity at 70.5 h was -3.08%.

As to `CN1CCC(Nc2ccc(Cl)cc2OCC(F)(F)F)C1=O` (stereo unspecified), the cytotoxicity at 70.5 h was -3.11%. Turning to `CC(C(=O)N1CCCCC1)N1CCN(c2ncc(Cl)cn2)CC1` (stereo unspecified), the cytotoxicity at 70.5 h is -0.389%.

As to `CNC(=O)[C@@H](C)NC(=O)c1cc(-c2ccc(F)cc2)c(C)s1`, the cytotoxicity at 70.5 h is -3.7%. The same measure for `CNC(=O)CNC(=O)NCc1cc2c(s1)CCC(C)(C)C2`: 2.16%; for `COC(C(=O)NC1CCN(S(C)(=O)=O)CC1)c1ccccc1` (stereo unspecified): 15.6%; for `O=C(NCCN1CCOCC1)NCc1ccc(-n2cccn2)cc1`: 1.89%.

As for `CCc1ncncc1C(=O)NCCNS(=O)(=O)c1ccccc1`, the cytotoxicity at 70.5 h amounted to 13.9%. As to `Cc1nnc(NCC(c2ccco2)N(C)C)c(C#N)c1C` (stereo unspecified), the cytotoxicity at 70.5 h was -4.51%.

As for `Cc1noc(C)c1C(=O)NCCN1CCN(S(C)(=O)=O)CC1`, the cytotoxicity at 70.5 h is -1.17%.

For the molecule `CCNC(=O)NC(=O)CNc1cc(C(=O)OC)cc(C(F)(F)F)c1`, the cytotoxicity at 70.5 h was -3.94%.

On to `CC(Cc1c(F)cccc1F)NC(=O)CN(CC(N)=O)C(C)C` (stereo unspecified), for which the cytotoxicity at 70.5 h was -2.04%. As to `N#Cc1cnc(NC2CCN(C(=O)C3CC3)CC2)c(Cl)c1`, the cytotoxicity at 70.5 h was 0.703%. With `CC(=O)N1CCN(c2nc3c(cnn3C(C)(C)C)c(=O)[nH]2)CC1`, the cytotoxicity at 70.5 h was -1.03%. On to `CNC(=O)NC(=O)CNc1cc(C(=O)OC)cc(C(F)(F)F)c1`, for which the cytotoxicity at 70.5 h came to 1.77%. `CN1CCCN(c2nc3c(cnn3C(C)(C)C)c(=O)[nH]2)CC1`: the cytotoxicity at 70.5 h was 16.5%. Consider `CC(C)(C)n1ncc2c(=O)[nH]c(N3CCN(CCO)CC3)nc21`, for which the cytotoxicity at 70.5 h is -1.33%. For the molecule `CC(C)C(O)CNC(=O)Nc1cccc(-c2nccs2)c1` (stereo unspecified), the cytotoxicity at 70.5 h is -3.11%.

In the case of `COc1ccc(CNC(Cn2cncn2)c2ccccc2)cc1O` (stereo unspecified), the cytotoxicity at 70.5 h was -0.077%. The same measure for `O=C(Nc1cc(C(F)(F)F)c[nH]c1=O)C1CCCCN1` (stereo unspecified): -8.9%. As to `O=C(c1cc(C2CCCCN2CCO)n[nH]1)N1CCOCC1` (stereo unspecified), the cytotoxicity at 70.5 h is -9.24%.

These data come from ChEMBL document CHEMBL3507680, “University of Dundee, Gates Library screen for HepG2 cell viability”.
